PMC10882719 (Frontiers in Neuroscience, 2024)
Like-named read-outs stand apart in the source and are kept apart here.

What was measured:
Format in all cases: cell-based
168 GPCRs [1] = target: T1, 168 GPCRs (Homo sapiens, UniProt P47900); details: P2RY1
T1 construct: host or cells: PathHunter cell lines

168 GPCRs [2] = target: T2, 168 GPCRs (Homo sapiens, UniProt P41597)
T2 construct: host or cells: PathHunter cell lines

168 GPCRs [3] = target: T3, 168 GPCRs (Homo sapiens, UniProt P23945); details: FSHR
T3 construct: host or cells: PathHunter cell lines
T3 sequence (P23945 18-695): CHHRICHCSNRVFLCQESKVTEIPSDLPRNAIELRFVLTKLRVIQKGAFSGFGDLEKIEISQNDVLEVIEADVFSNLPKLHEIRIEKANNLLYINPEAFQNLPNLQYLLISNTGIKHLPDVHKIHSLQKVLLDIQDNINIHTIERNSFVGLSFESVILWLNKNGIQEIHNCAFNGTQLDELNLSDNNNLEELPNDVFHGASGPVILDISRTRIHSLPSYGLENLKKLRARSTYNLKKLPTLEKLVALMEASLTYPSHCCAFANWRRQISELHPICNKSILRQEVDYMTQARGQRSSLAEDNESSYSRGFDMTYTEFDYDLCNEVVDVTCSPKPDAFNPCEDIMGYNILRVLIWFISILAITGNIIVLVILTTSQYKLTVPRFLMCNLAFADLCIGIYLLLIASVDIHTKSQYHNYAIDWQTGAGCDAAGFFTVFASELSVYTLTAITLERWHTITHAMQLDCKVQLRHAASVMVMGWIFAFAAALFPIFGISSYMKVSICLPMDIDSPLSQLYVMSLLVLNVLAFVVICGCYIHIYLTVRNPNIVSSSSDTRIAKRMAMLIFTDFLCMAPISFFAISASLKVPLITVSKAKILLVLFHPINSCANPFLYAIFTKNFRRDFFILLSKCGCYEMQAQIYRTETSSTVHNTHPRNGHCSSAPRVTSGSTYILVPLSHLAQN

168 GPCRs [4] = target: T4, 168 GPCRs (Homo sapiens, UniProt P46091)
T4 construct: host or cells: PathHunter cell lines
T4 sequence (P46091 1-355): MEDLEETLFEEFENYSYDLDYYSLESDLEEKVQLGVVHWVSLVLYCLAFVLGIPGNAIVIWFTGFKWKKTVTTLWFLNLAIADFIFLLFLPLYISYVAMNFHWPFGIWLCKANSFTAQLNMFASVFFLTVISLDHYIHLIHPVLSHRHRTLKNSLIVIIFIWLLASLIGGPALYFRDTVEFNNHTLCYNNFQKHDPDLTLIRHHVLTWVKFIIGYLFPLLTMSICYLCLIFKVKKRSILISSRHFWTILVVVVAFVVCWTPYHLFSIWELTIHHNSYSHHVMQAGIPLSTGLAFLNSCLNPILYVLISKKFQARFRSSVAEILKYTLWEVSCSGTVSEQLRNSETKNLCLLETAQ

168 GPCRs [5] = target: T5, 168 GPCRs (Homo sapiens, UniProt Q01726); details: MC1R
T5 construct: host or cells: PathHunter cell lines

168 GPCRs [6] = target: T6, 168 GPCRs (Homo sapiens, UniProt P28222); details: HTR1B
T6 construct: host or cells: PathHunter cell lines

168 GPCRs [7] = target: T7, 168 GPCRs (Homo sapiens, UniProt P21453)
T7 construct: host or cells: PathHunter cell lines

168 GPCRs [8] = target: T8, 168 GPCRs (Homo sapiens, UniProt P30556)
T8 construct: host or cells: PathHunter cell lines
T8 sequence (P30556 1-359): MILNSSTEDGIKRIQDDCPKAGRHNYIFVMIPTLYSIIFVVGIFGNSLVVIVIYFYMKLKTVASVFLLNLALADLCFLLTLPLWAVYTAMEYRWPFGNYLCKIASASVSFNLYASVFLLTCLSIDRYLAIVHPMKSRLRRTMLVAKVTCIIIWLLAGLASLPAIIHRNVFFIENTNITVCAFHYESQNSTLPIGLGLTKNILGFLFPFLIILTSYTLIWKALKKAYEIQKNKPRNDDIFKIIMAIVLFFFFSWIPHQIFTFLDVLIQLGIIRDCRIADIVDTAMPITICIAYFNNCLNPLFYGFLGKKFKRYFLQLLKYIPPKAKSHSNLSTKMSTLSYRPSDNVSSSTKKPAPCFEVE

168 GPCRs [9] = target: T9, 168 GPCRs (Homo sapiens, UniProt P20309)
T9 construct: host or cells: PathHunter cell lines
T9 sequence (P20309 whole entry): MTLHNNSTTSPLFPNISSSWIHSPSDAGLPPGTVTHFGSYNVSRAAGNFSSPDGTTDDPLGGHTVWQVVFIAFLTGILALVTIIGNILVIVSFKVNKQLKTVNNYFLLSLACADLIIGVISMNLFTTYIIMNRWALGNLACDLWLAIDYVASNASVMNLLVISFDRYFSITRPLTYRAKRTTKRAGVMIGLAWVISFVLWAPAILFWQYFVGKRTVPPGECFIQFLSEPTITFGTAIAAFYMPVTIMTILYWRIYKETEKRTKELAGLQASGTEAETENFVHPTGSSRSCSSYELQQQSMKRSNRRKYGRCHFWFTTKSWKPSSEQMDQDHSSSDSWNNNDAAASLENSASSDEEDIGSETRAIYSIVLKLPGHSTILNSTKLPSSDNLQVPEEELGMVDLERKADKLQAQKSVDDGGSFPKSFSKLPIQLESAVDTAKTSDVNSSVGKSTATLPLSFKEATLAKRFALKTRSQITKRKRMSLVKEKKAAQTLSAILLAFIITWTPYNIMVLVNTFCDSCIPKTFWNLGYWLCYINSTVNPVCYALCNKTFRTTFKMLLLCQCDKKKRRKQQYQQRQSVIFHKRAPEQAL

T1 sequence (P47900 whole entry): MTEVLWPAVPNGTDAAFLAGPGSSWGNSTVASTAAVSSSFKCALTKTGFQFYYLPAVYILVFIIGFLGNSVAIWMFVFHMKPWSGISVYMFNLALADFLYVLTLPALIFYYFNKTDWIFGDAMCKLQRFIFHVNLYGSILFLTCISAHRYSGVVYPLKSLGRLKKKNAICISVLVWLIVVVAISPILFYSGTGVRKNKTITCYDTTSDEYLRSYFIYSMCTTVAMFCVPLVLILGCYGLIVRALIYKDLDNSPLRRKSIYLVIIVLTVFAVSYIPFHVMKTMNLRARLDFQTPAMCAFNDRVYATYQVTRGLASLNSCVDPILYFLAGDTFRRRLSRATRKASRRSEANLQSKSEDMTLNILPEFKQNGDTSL
T5 sequence (Q01726 whole entry): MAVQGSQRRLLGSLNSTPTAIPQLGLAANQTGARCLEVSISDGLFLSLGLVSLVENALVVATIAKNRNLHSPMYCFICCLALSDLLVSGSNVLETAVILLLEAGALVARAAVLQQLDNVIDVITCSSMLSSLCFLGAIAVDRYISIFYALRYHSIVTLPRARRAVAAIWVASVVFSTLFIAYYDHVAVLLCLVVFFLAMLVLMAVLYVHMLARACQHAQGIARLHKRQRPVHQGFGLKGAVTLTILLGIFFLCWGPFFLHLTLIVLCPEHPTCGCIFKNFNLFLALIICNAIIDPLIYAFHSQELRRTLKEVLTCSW
T2 sequence (P41597 whole entry): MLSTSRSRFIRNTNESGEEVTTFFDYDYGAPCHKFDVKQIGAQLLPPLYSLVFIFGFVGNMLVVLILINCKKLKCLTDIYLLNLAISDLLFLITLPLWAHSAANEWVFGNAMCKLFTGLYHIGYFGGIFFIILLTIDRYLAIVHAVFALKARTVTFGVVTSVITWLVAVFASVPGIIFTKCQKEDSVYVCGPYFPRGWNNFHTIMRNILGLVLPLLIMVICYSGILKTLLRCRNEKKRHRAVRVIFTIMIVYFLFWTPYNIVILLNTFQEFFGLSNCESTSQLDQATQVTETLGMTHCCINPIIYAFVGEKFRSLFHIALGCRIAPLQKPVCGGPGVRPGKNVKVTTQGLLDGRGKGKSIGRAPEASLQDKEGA
T7 sequence (P21453 whole entry): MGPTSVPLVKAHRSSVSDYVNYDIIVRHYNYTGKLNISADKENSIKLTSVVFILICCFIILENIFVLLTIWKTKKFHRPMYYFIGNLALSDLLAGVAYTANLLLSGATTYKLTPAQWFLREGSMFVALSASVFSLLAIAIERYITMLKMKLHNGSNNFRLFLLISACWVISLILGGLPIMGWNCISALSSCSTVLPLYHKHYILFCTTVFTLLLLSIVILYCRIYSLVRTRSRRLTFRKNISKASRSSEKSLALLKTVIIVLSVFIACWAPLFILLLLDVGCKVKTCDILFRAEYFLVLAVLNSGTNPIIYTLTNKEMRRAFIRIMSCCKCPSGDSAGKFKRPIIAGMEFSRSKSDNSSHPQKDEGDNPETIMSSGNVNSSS
T6 sequence (P28222 whole entry): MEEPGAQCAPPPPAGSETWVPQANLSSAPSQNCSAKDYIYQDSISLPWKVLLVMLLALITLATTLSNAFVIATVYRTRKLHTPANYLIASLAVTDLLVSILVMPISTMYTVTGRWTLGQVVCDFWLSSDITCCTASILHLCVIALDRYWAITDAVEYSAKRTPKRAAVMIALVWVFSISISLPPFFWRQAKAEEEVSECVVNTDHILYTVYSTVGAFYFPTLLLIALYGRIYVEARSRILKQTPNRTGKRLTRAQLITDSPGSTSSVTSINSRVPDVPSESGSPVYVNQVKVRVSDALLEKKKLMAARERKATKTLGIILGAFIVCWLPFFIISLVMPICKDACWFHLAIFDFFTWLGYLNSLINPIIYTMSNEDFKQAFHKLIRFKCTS

Row | SMILES | % Agonist Activity (168 GPCRs [1]; Conc 1 uM) | % Antagonist Activity (168 GPCRs [1]; Conc 1 uM) | % Agonist Activity (168 GPCRs [1]; Conc 10 uM) | % Antagonist Activity (168 GPCRs [1]; Conc 10 uM) | % Agonist Activity (168 GPCRs [2]; CCR2, 1 uM) | % Antagonist Activity (168 GPCRs [2]; CCR2, 1 uM) | % Agonist Activity (168 GPCRs [2]; CCR2, 10 uM) | % Antagonist Activity (168 GPCRs [2]; CCR2, 10 uM) | % Agonist Activity (168 GPCRs [3]; 1 uM) | % Antagonist Activity (168 GPCRs [3]; 1 uM) | % Agonist Activity (168 GPCRs [3]; 10 uM) | % Antagonist Activity (168 GPCRs [3]; 10 uM) | % Agonist Activity (168 GPCRs [4]; GPR1, 1 uM) | % Antagonist Activity (168 GPCRs [4]; GPR1, 1 uM) | % Agonist Activity (168 GPCRs [4]; GPR1, 10 uM) | % Antagonist Activity (168 GPCRs [4]; GPR1, 10 uM) | % Agonist Activity (168 GPCRs [5]; 1 uM) | % Antagonist Activity (168 GPCRs [5]; 1 uM) | % Agonist Activity (168 GPCRs [5]; 10 uM) | % Antagonist Activity (168 GPCRs [5]; 10 uM) | further results
1 | CNC(C)C(=O)c1ccc2c(c1)OCO2 (stereo not drawn) [methylone] | 2.2% | 14.5% | -4.1% | 14.9% | -0.4% | 2% | -0.5% | 4.9% | -1% | -11.8% | -2.2% | -8.4% | -0.5% | 4.4% | -0.7% | 7.4% | -2.6% | 20.1% | -4.4% | 15.9% | % Agonist Activity (168 GPCRs [6]; 1 uM): 3.3%; % Antagonist Activity (168 GPCRs [6]; 1 uM): -9.5%; % Agonist Activity (168 GPCRs [6]; 10 uM): 6.7%; % Antagonist Activity (168 GPCRs [6]; 10 uM): -6.2%; % Agonist Activity (168 GPCRs [7]; EDG1, 1 uM): 0.1%; % Antagonist Activity (168 GPCRs [7]; EDG1, 1 uM): 12.4%; % Agonist Activity (168 GPCRs [7]; EDG1, 10 uM): 0.4%; % Antagonist Activity (168 GPCRs [7]; EDG1, 10 uM): 10.5%; % Agonist Activity (168 GPCRs [8]; AGTR1, 1 uM): -2.8%; % Antagonist Activity (168 GPCRs [8]; AGTR1, 1 uM): 3.3%; % Agonist Activity (168 GPCRs [8]; AGTR1, 10 uM): -1%; % Antagonist Activity (168 GPCRs [8]; AGTR1, 10 uM): -1.4%; % Agonist Activity (168 GPCRs [9]; CHRM3, 1 uM): 6%; % Antagonist Activity (168 GPCRs [9]; CHRM3, 1 uM): -5.5%; % Agonist Activity (168 GPCRs [9]; CHRM3, 10 uM): 6%; % Antagonist Activity (168 GPCRs [9]; CHRM3, 10 uM): 14.6%
2 | CNC(C)Cc1ccc2c(c1)OCO2 (stereo not drawn) [MDMA, 3,4-Methylenedioxy methamphetamine, reference compound] | 0.3% | 2.8% | -0.8% | 1.2% | 0.5% | 9.2% | 0.7% | 11.1% | 0.7% | 3.2% | -0.1% | -5.8% | 0.7% | 7.6% | 0.2% | 11.9% | -6.6% | 6.5% | -3.4% | -4.9% | % Agonist Activity (168 GPCRs [6]; 1 uM): 8.5%; % Antagonist Activity (168 GPCRs [6]; 1 uM): -7.3%; % Agonist Activity (168 GPCRs [6]; 10 uM): 10.4%; % Antagonist Activity (168 GPCRs [6]; 10 uM): -0.1%; % Agonist Activity (168 GPCRs [7]; EDG1, 1 uM): 0%; % Antagonist Activity (168 GPCRs [7]; EDG1, 1 uM): 3.5%; % Agonist Activity (168 GPCRs [7]; EDG1, 10 uM): -0.6%; % Antagonist Activity (168 GPCRs [7]; EDG1, 10 uM): -12.4%; % Agonist Activity (168 GPCRs [8]; AGTR1, 1 uM): 3.5%; % Antagonist Activity (168 GPCRs [8]; AGTR1, 1 uM): -17.7%; % Agonist Activity (168 GPCRs [8]; AGTR1, 10 uM): 3.2%; % Antagonist Activity (168 GPCRs [8]; AGTR1, 10 uM): -14.5%; % Agonist Activity (168 GPCRs [9]; CHRM3, 1 uM): 5.1%; % Antagonist Activity (168 GPCRs [9]; CHRM3, 1 uM): -9.4%; % Agonist Activity (168 GPCRs [9]; CHRM3, 10 uM): 4.3%; % Antagonist Activity (168 GPCRs [9]; CHRM3, 10 uM): 1.4%
